Experiment [1] has as its system drug-resistant Enterobacteriaceae strains. Kind of experiment: Checkerboard combination, summary over Enterobacteriaceae strains. Format: cell-based. The note with it: combined with avibactam; all of the 12 drug-resistant Enterobacteriaceae strains tested. The method, then: Mueller-Hinton broth (MH broth) medium, Trypticase Soy Broth (TSB Broth) medium, purchased from BD Difco, Cockeysville, MD, USA; • 96-well plate: Corning Costar, Cambridge, MA, USA; • Test method: the checkerboard dilution method was used for determination.
(1) Preparation of the test samples: 4 mg of each sample was taken and was prepared into a test solution at 2,048 μg/mL with MH broth, and the test solution was diluted two-fold in a 96-well plate to prepare solutions of a series of gradient concentrations.
(2) Preparation of a bacteria solution: The test strains were amplified by Trypticase Soy Broth (TSB Broth) according to the CLSI/NCCLS standard.
(3) Addition of the samples: 10 μL of the bacteria solution with a concentration of 6×10^5 CFU/mL was pipetted into each well of the 96-well plate. Each well contained the antibacterial drugs (the compound of formula (I-1) and the compound of formula (I-2)) diluted two-fold with broth and the aforementioned lactamase inhibitor or efflux pump inhibitor. […] The samples were mixed thoroughly. Three parallel experiments were set up for each concentration and the results were averaged. […]
(5) Calculation: The in vitro effect of each drug-inhibitor combination was analyzed by calculating the FICI value: FICI=(MIC of drug A in the combination/MIC of drug A alone)+ (MIC of drug B in the combination/MIC of drug B alone). […]

Experiment [2] relates to Klebsiella pneumoniae. As to the kind of experiment: MIC assay of individual compounds (microdilution, CLSI/NCCLS). Format: cell-based. To be noted: Klebsiella pneumoniae, read-out: MIC. In general terms: In broth dilution the organism is exposed to a series of concentrations in liquid medium.

Where two headings read alike, the source gives them in different places.

For `CC1(C)[C@H](NC(=O)/C(=N\OC2(C(=O)O)CC2)c2csc(N)n2)C(=O)N1OS(=O)(=O)O` [Compound of formula (I-1)], the “change of MIC values on combination” value in experiment [1] was “significantly reduced”. For the same compound, the MIC was found to be 2 µg/mL in experiment [2] (ATCC2146, individual compound, Klebsiella pneumoniae ATCC 2146); 4 µg/mL in experiment [2] (ATCC700603, individual compound, Klebsiella pneumoniae ATCC 700603); 2 µg/mL in experiment [2] (individual compound, Klebsiella pneumoniae CCPM(A)-0814R18); 2 µg/mL in experiment [2] (individual compound, Klebsiella pneumoniae CCPM(A)-0814R33); 64 µg/mL in experiment [2] (individual compound, Klebsiella pneumoniae CCPM(A)-0817R61); 2 µg/mL in experiment [2] (individual compound, Klebsiella pneumoniae CCPM(A)-081301). Further, the MIC in experiment [2] (individual compound, Klebsiella pneumoniae CCPM(A)-081705) was 2 µg/mL; in experiment [2] (individual compound, Klebsiella pneumoniae CCPM(A)-081715), 2 µg/mL; in experiment [2] (individual compound, Klebsiella pneumoniae CCPM(A)-081716), 128 µg/mL; in experiment [2] (individual compound, Klebsiella pneumoniae CCPM(A)-081729), 2 µg/mL.

One may read the MIC as the least concentration at which growth counts as inhibited.

For the origin of these results see patent US20240390335A1, “PHARMACEUTICAL COMPOSITION CONTAINING BETA-LACTAM COMPOUND AND USE THEREOF” (priority 2021, published 2024).
